From patent US7863446B2, “Heterocycles” (Orchid Research Laboratories Limited, priority 2006, dated 2011) come the findings set out here.

One data set has as its system TNF-α. Kind of data set: In vitro measurement of TNF-α in human PBMC (LPS stimulated). The data set is classed as cell-based. How it is done:
In Vitro Measurement of Tumor Necrosis Factor Alpha (TNF-α)
This assay determines the effect of test compounds on the production of TNF α in human Peripheral Blood Mononuclear Cells (PBMC). Compounds were tested for their ability to inhibit the activity of TNF α in human PBMC. PBMC were isolated from blood (of healthy volunteers) using BD Vacutainer CPT™ (Cell preparation tube, BD Bio Science) and suspended in RPMI medium (Physiol. Res. 52: 593-598, 2003). The test compounds were pre-incubated with PBMC (0.5 million/incubation well) for 15 minutes at 37° C. and then stimulated with Lipopolysaccharide (Escherichia coli: B4; 1 μg/ml) for 18 hours at 37° C. in 5% CO2. The levels of TNF-α in the cell culture medium were estimated using enzyme-linked immunosorbent assay performed in a 96 well format as per the procedure of the manufacturer (Cayman Chemical, Ann Arbor, USA).

A further data set concerns the target T1, COX-2 (Homo sapiens, UniProt P35354).
T1 construct: Fresh blood was collected in tubes containing sodium heparin by vein puncture from healthy male volunteers; endogenous in cells; host or cells: human whole blood from healthy male volunteers, stimulated with LPS
T1 sequence (P35354 18-604): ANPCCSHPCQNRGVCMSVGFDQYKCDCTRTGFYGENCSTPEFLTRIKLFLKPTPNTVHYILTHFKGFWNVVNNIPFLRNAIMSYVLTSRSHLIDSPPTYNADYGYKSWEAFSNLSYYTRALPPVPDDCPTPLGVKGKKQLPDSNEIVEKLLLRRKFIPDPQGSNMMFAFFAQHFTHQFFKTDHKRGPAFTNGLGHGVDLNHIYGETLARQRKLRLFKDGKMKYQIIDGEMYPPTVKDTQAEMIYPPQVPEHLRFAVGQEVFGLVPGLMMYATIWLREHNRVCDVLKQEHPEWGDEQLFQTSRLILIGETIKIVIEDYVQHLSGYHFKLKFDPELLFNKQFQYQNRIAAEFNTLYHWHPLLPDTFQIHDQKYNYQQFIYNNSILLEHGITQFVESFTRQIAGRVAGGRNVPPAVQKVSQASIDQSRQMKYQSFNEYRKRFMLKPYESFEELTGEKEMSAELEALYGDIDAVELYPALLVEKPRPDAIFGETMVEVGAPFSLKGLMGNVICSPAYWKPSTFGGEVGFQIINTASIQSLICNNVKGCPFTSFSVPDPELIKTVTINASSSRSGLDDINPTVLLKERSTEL
Kind of data set: Human whole blood assay (PGE-2 inhibition, COX-2). The class given is cell-based. To be noted: LPS stimulated human whole blood, NA = No activity, read-out: % PGE-2 Inhibition in hWBA. How it is done:
In Vitro Evaluation of Cyclooxygenase-2 (Cox-2) Inhibition Activity
The COX-2 inhibition activities of the compounds illustrated in the examples were determined by the following method.
Human whole blood provides a protein and cell rich milieu appropriate for the study of the biochemical efficacy of anti-inflammatory compounds such as selective COX-2 inhibitors. […] This correlates with the observation that COX-2 inhibitors have no effect on prostaglandin E2 (PGE2) production in normal blood. These inhibitors were active only after incubation of human blood with lipopolysaccharide (LPS), which induces COX-2 production in the blood.
Fresh blood was collected in tubes containing sodium heparin by vein puncture from healthy male volunteers. The subjects should have no apparent inflammatory conditions and should have not taken NSAIDs for at least 7 days prior to blood collection. Blood was preincubated with aspirin in vitro (12 μg/ml, at time zero) to inactivate COX-1 for 6 hours. Then test compounds (at various concentrations) or vehicle were added to blood, the blood was stimulated with LPS B:4 (10 μg/ml) and incubated for another 18 hours at 37° C. water bath. After which the blood was centrifuged, plasma was separated and stored at −80° C. (J. Pharmacol. Exp. Ther, 271, 1705, 1994; Proc. Natl. Acad. Sci. USA, 96, 7563, 1999). The plasma was assayed for PGE2 using Cayman ELISA kit as per the procedure outlined by the manufacturer (Cayman Chemicals, Ann Arbor, USA).

A further data set relates to HCT-116. Kind of data set: Anti-cancer screen (MTT), HCT-116. The class given is cell-based. To be noted: Homo sapiens, HCT-116, 48 hours. How it is done: (§1) Experimental drugs are screened for anti-cancer activity in three cell lines for their GI50, TG1 and LC50 values (using 5 concentrations for each compound). The cell lines are maintained in DMEM containing 10% fetal bovine serum. 96 well microtiter plates are inoculated with cells in […] for 24 hours at 37° C., 5% CO2, 95% air and 100% relative humidity. 5000 HCT116 cells/well, 5000 NCIH460 cells/well, 10000 U251 cells/well and 5000 MDAMB231 cells/well are plated. A separate plate with these cell lines is also inoculated to determine cell viability before the addition of the compounds (T0).
(§2) Addition of Experimental Drugs
(§3) Following 24-hour incubation, experimental drugs are added to the 96 well plates. Each plate contains one of the above cell lines and the following in triplicate: 5 different concentrations (0.01, 0.1, 1, 10 and 100 μM) of 4 different compounds, appropriate dilutions of a cytotoxic standard and control (untreated) wells. Compounds are dissolved in dimethylsulfoxide (DMSO) to make 20 mM stock solutions, on the day of drug addition and frozen at −20° C. Serial dilutions of these 20 mM stock solutions are made in complete growth medium such that 100 μL of these drug solutions in medium, of final concentrations equaling 0.01, 0.1, 1, 10 and 100 μM can be added to the cells in triplicate. Standard drugs whose anti-cancer activity has been well documented and which are regularly used are doxorubicin and SAHA.
(§4) Cells are incubated with compounds for 48 hours followed by the addition of 10 μL 3-(4,5-Dimethyl-2-thiazolyl)-2,5-diphenyl-2H-tetrazolium (MTT) solution per well and a subsequent incubation at 37° C., 5% CO2, 95% air and 100% relative humidity, protected from light. After 4 hours, well contents are aspirated carefully followed by addition of 150 μL DMSO per well. Plates are agitated to ensure solution of the formazan crystals in DMSO and absorbance read at 570 nm.
(§5) Calculation of GI50, TGI and LC50
(§6) Percent growth is calculated for each compound's concentration relative to the control and zero measurement wells (T0; viability right before compound addition).
(§7) If a test well's O.D. value is greater than the T0 measurement for that cell line % Growth=(test−zero)/(control−zero)×100
(§8) If a test well's O.D. value is lower than the T0 measurement for that cell line, then % Growth=(test−zero)/zero×100 Plotting % growth versus experimental drug concentration, GI50 is the concentration required to decrease % growth by 50%; TGI is the concentration required to decrease % growth by 100% and LC50 is the concentration required to decrease % growth by 150%.

Another data set deals with NCI-H460. Briefly: Anti-cancer screen (MTT), NCI-H460. The class given is cell-based. Particulars: Homo sapiens, NCI-H460, 48 hours. How it is done:
as §1, §2, §3, §4, §5, §6, §7, §8

Data set [1] addresses purified recombinant COX-1 (Homo sapiens, UniProt P23219). Briefly: COX-1 enzyme based assay. The data set is classed as biochemical. To be noted: NA = No activity, read-out: % Inhibition in rEnzyme Assay COX-1. How it is done: (§9) COX-1 and COX-2 Enzyme Based Assay
(§10) COX-1 and COX-2 enzyme based assays were carried out to check the inhibitory potential of the test compounds on the production of prostaglandin by purified recombinant COX-1/COX-2 enzyme (Proc. Nat. Acad. Sci. USA, 88, 2692-2696, 1991; J. Clin. Immunoassay 15, 116-120, 1992) In this assay, the potential of the test compound to inhibit the production of prostaglandin either by COX-1 or COX-2 from arachidonic acid (substrate) was measured. This was an enzyme based in-vitro assay to evaluate selective COX inhibition with good reproducibility.
(§11) Arachidonic acid was converted to PGH2 (Intermediate product) by COX1/COX-2 in the presence or absence of the test compound. The reaction was carried out at 37° C. and after 2 minutes it was stopped by adding 1M HCl. Intermediate product PGH2 was converted to a stable prostanoid product PGF2αby SnCl2 reduction. The amount of PGF2α, produced in the reaction was inversely proportional to the COX inhibitory potential of the test compound. The prostanoid product was quantified via enzyme immunoassay (EIA) using a broadly specific antibody that binds to all the major forms of prostaglandin, using Cayman ELISA kit as per the procedure outlined by the manufacturer (Cayman Chemicals, Ann Arbor, USA).

In data set [2] the target is T2, purified recombinant COX-2 (Homo sapiens, UniProt P35354).
T2 sequence (P35354 18-604): T1 sequence (P35354 18-604)
Kind of data set: COX-2 enzyme based assay. The data set is classed as biochemical. To be noted: 10 μM; NA = No activity; read-out: % Inhibition in rEnzyme Assay COX-2. How it is done:
as §9, §10, §11

SMILES strings stand for the structures.

purified recombinant COX-1, sequence (P23219 24-599): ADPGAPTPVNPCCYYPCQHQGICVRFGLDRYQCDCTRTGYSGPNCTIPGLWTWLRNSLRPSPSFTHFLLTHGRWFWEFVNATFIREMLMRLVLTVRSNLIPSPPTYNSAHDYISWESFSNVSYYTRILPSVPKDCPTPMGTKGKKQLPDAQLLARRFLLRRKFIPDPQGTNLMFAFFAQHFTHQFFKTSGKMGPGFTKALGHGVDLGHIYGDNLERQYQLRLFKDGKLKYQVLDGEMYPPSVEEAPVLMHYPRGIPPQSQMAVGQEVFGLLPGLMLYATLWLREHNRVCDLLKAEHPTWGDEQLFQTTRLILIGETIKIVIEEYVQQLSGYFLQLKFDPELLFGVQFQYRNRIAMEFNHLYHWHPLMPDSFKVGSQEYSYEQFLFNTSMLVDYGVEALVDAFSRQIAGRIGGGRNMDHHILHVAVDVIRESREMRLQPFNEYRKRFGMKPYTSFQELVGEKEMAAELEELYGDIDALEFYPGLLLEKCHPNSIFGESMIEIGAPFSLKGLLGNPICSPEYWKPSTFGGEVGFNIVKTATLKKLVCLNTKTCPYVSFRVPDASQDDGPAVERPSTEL

Turning to `CS(=O)(=O)c1ccc(-c2nc(C(F)(F)F)nc(Cl)c2-c2ccc(S(=O)(=O)Cl)cc2)cc1` [Example 3, 4-{4-Chloro-6-[4-(methylsulfonyl)phenyl]-2-(trifluoromethyl)pyrimidin-5-yl}benzenesulfonyl chloride], the melting point fell in the range of 207 to 210 °C.

Consider `O=C(NNc1nc(C(F)(F)F)nc(-c2ccncc2)c1-c1ccc(F)cc1)C(F)(F)F` [Example 14, 2,2,2-Trifluoro-N′-[5-(4-fluorophenyl)-6-pyridin-4-yl-2-(trifluoromethyl)pyrimidin-4-yl]acetohydrazide], for which the melting point lay within 240 to 242 °C. In the data set on TNF-α (1 μM, NA = No activity, read-out: TNF-α Inhibition (%) at Conc. (1 μM)), the inhibition at 1 µM came out at 25.5%. In addition, the inhibition at 10 µM in the data set with TNF-α (10 μM, read-out: TNF-α Inhibition (%) at Conc. (10 μM)) worked out at 67.5%.

In the case of `CC(=O)NS(=O)(=O)c1ccc(-c2c(Cl)nc(C(F)(F)F)nc2-c2ccc(S(C)(=O)=O)cc2)cc1` [Example 17, N-[(4-{4-Chloro-6-[4-(methylsulfonyl)phenyl]-2-(trifluoromethyl)pyrimidin-5-yl}phenyl)sulfonyl]acetamide], the melting point was 230 to 235 °C.

As for `Cc1ccc(S(=O)(=O)Oc2nc(C(F)(F)F)nc(-c3ccc(S(C)(=O)=O)cc3)c2-c2ccccc2)cc1` [Example 22, 6-[4-(Methylsulfonyl)phenyl]-5-phenyl-2-(trifluoromethyl)pyrimidin-4-yl-4-methylbenzenesulfonate], on COX-2 (0.25 μM), the inhibition at 0.25 µM turned out to be 15.6%. Besides, on COX-2 (1 μM), the inhibition at 1 µM is 20.4%. For the same compound, the inhibition at 10 µM at COX-2 (10 μM) worked out at 36.4%.

Turning to `NS(=O)(=O)c1ccc(-c2nc(C(F)(F)F)nc(N3CCN(C(=O)c4ccc([N+](=O)[O-])o4)CC3)c2-c2ccc(F)cc2)cc1` [Example 40, 4-{5-[4-Fluorophenyl]-4-[4-(5-nitro-2-furoyl)piperazin-1-yl]-2-(trifluoromethyl)pyrimidin-6-yl}benzenesulfonamide], the values for the GI50 in the data set with HCT-116 and in the data set on NCI-H460 were 3.5 µM and 3.8 µM, respectively.

With `NS(=O)(=O)c1ccc(-c2c(-c3ccc(F)cc3)nc(C(F)(F)F)nc2N2CCN(C(=O)c3ccc([N+](=O)[O-])o3)CC2)cc1` [Example 41, 4-{6-[4-Fluorophenyl]-4-[4-(5-nitro-2-furoyl)piperazin-1-yl]-2-(trifluoromethyl)pyrimidin-5-yl}benzenesulfonamide], the values for the concentration for 50% growth inhibition (GI50) in the data set on HCT-116 and in the data set with NCI-H460 were 7 µM and 4 µM, respectively.

On to `O=C(c1ccc([N+](=O)[O-])o1)N1CCN(c2nc(C(F)(F)F)nc(-c3ccncc3)c2-c2ccc(F)cc2)CC1` [Example 44, 5-[4-Fluorophenyl]-4-[4-(5-nitro-2-furoyl)piperazin-1-yl]-6-pyridin-4-yl-2-(trifluoromethyl)pyrimidine], for which the results for the GI50 with HCT-116 and in the data set on NCI-H460 were 26 µM and 4.5 µM, respectively.

`FC(F)(F)c1nc(-c2ccccc2)c(-c2ccccc2)c(N2CCN(c3ccccn3)CC2)n1` [Example 48, 4,5-Diphenyl-6-(4-pyridin-2-yl-piperazin-1-yl)-2-(trifluoromethyl)pyrimidine] returned a melting point of 165 to 167 °C.

Turning to `NS(=O)(=O)c1cccc(-c2c(-c3ccccc3)nc(C(F)(F)F)nc2N2CCNCC2)c1` [Example 51, 3-[4-Phenyl-6-piperazin-1-yl-2-(trifluoromethyl)pyrimidin-5-yl]benzenesulfonamide], the inhibition at 1 µM in data set [1] (1 μM) came out at 8.27%. For the same compound, the inhibition at 10 µM worked out at 7.1% in data set [1] (10 μM) and 12.3% in data set [2]. For the same compound, the GI50 was found to be 30 µM in the data set on HCT-116 and 4 µM with NCI-H460.

Take `NS(=O)(=O)c1cccc(-c2c(-c3ccc(F)cc3)nc(C(F)(F)F)nc2N2CCN(c3cccc(C(F)(F)F)c3)CC2)c1` [Example 73, 5-(3-Aminosulfonylphenyl)-4-(4-fluorophenyl)-2-(trifluoromethyl)-6-{4-[3-(trifluoromethyl)phenyl]piperazin-1-yl}pyrimidine]: the 50% growth inhibitory concentration (GI50) was 9.2 µM with HCT-116 and 9 µM in the data set with NCI-H460.

In the case of `CSc1nn(-c2nc(C(F)(F)F)nc(-c3ccncc3)c2-c2ccc(F)cc2)c(N)c1C(=O)Nc1ccc(C)c(C)c1` [Example 143, 5-Amino-N-(4,5-dimethylphenyl)-1-[5-(4-fluorophenyl)-6-pyridin-4-yl-2-(trifluoromethyl)pyrimidin-4-yl]-3-(methylthio)-1H-pyrazole-4-carboxamide], the results for the GI50 in the data set with HCT-116 and in the data set on NCI-H460 were 20 µM and 0.1 µM, respectively.
